Columns and labels:
[1] = test system: windgrass; test: Test Example 4: herbicidal effect by soil treatment (Table 19, symbol L); format: in vivo, windgrass (Apera spica-venti); settings: amount of applied herbicide 320 g/ha
Summary of the method: (§1)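 Seeds were sown in sterilized diluvial soil and covered with about 1.5 cm of soil. An emulsion formulation diluted with water to a predetermined herbicide amount was sprayed evenly onto the soil surface. Plants grew in a greenhouse at 25° C. to 30° C., and the effect was scored three weeks after application using criteria from an earlier test.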

[2] = test system: lambsquarters; test: Test Example 4: herbicidal effect by soil treatment (Table 19, symbol O); format: in vivo, lambsquarters (Chenopodium album); settings: amount of applied herbicide 320 g/ha
Summary of the method: as §1

[3] = test system: Chinese sprangletop; test: Test Example 3: herbicidal effect by foliage application, Wagner pot (Table 18, symbol D); format: in vivo, chinese sprangletop (Leptochloa chinensis); settings: 320 g/ha
Summary of the method: (§2)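 Plants were sown in alluvial soil held under 0.1–0.5 cm standing water and grown 14 days in a greenhouse at 25–30 °C. An emulsifiable formulation, water-diluted to the set dose, was then sprayed onto the foliage, and effects were scored three weeks later using previously defined criteria.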

[4] = test system: persian speedwell; test: Test Example 5: herbicidal effect by foliage application, plastic box (Table 20, symbol R); format: in vivo, Persian speedwell (Veronica persica); settings: 320 g/ha
Summary of the method: (§3)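 Plants sown in sterilized diluvial soil and grown 14 days in a greenhouse at 25° C to 30° C, then sprayed on the foliage with the compound's emulsion diluted in water to a predetermined herbicide amount. Injury to weeds and crops scored three weeks after application on a visual rating scale.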

[5] = test system: chickweed; test: Test Example 5: herbicidal effect by foliage application, plastic box (Table 20, symbol P); format: in vivo, common chickweed (Stellaria media); settings: 320 g/ha
Summary of the method: as §3

[6] = test system: velvetleaf; test: Test Example 4: herbicidal effect by soil treatment (Table 19, symbol M); format: in vivo, velvetleaf (Abutilon theophrasti); settings: amount of applied herbicide 320 g/ha
Summary of the method: as §1

[7] = test system: windgrass; test: Test Example 5: herbicidal effect by foliage application, plastic box (Table 20, symbol L); format: in vivo, windgrass (Apera spica-venti); settings: 320 g/ha
Summary of the method: as §3

[8] = test system: barnyard grass; test: Test Example 5: herbicidal effect by foliage application, plastic box (Table 20, symbol H); format: in vivo, barnyard grass (Echinochloa crus-galli); settings: 320 g/ha
Summary of the method: as §3

[9] = test system: green foxtail; test: Test Example 5: herbicidal effect by foliage application, plastic box (Table 20, symbol G); format: in vivo, green foxtail (Setaria viridis); settings: 320 g/ha
Summary of the method: as §3

[10] = test system: oval-leafed pondweed; test: Test Example 2: herbicidal activity, application during weed generation under submerged conditions (Table 17, symbol C); format: in vivo, oval-leafed pondweed (Monochoria vaginalis); settings: AAH 320 g/ha; application during weed generation, submerged conditions
Summary of the method: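 Effect on each weed is rated three weeks post-treatment, using the same scoring criteria as the preceding test. Plants grow from mixed-sown seed in flooded alluvial soil (4 cm water) at 25° C. to 30° C., and are treated at one to two leaves with diluted emulsion dropped onto the water.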

[11] = test system: southern crabgrass; test: Test Example 5: herbicidal effect by foliage application, plastic box (Table 20, symbol F); format: in vivo, southern crabgrass (Digitaria ciliaris); settings: 320 g/ha
Summary of the method: as §3

[12] = test system: southern crabgrass; test: Test Example 4: herbicidal effect by soil treatment (Table 19, symbol F); format: in vivo, southern crabgrass (Digitaria ciliaris); settings: amount of applied herbicide 320 g/ha
Summary of the method: as §1

[13] = test system: rice flat sedge; test: Test Example 3: herbicidal effect by foliage application, Wagner pot (Table 18, symbol E); format: in vivo, rice flat sedge (Cyperus iria); settings: 320 g/ha
Summary of the method: as §2

[14] = test system: redroot pigweed; test: Test Example 4: herbicidal effect by soil treatment (Table 19, symbol N); format: in vivo, redroot pigweed (Amaranthus retroflexus); settings: amount of applied herbicide 320 g/ha
Summary of the method: as §1

[15] = test system: oval-leafed pondweed; test: Test Example 1: herbicidal activity, application before weed generation under submerged conditions (Table 16, symbol C); format: in vivo, oval-leafed pondweed (Monochoria vaginalis); settings: amount of applied herbicide 320 g/ha
Summary of the method: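 Alluvial soil was flooded to 4 cm depth, weed seeds were sown mixed and 2.5-leaf rice seedlings were transplanted. On sowing day, the compound's emulsion, diluted in water to a set dose, was applied to the water surface. Plants grew at 25–30 °C and were scored 0–5 after three weeks.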

[16] = test system: lambsquarters; test: Test Example 5: herbicidal effect by foliage application, plastic box (Table 20, symbol O); format: in vivo, lambsquarters (Chenopodium album); settings: 320 g/ha
Summary of the method: as §3

[17] = foliage application, three weeks after application
[18] = foliage application after 14-day growth, evaluated three weeks after application

COc1ccccc1-c1sc2cc(OC(C)C)ccc2c1-c1c(O)c(C)nn(C)c1=O [3-101]
L: windgrass, herbicidal effect grade [1]: 4 (Herbicidal rate of 70% or more and less than 90%) | O: lambsquarters, herbicidal effect grade [2]: 5 (Herbicidal rate of 90% or more (almost completely withered)) | herbicidal effect on Chinese sprangletop (D) [3]: 3 (Herbicidal rate of 40% or more and less than 70%) | R: persian speedwell, herbicidal effect grade [4, 17]: 5 (Herbicidal rate of 90% or more (almost completely withered)) | P: chickweed, herbicidal effect grade [5, 17]: 5 (Herbicidal rate of 90% or more (almost completely withered)) | M: velvetleaf, herbicidal effect grade [6]: 3 (Herbicidal rate of 40% or more and less than 70%) | L: windgrass, herbicidal effect grade [7, 17]: 5 (Herbicidal rate of 90% or more (almost completely withered)) | H: barnyard grass, herbicidal effect grade [8, 17]: 5 (Herbicidal rate of 90% or more (almost completely withered)) | G: green foxtail, herbicidal effect grade [9, 17]: 5 (Herbicidal rate of 90% or more (almost completely withered)) | herbicidal effect rating, C: oval-leafed pondweed [10]: 2 (Herbicidal rate of 20% or more and less than 40%) | F: southern crabgrass, herbicidal effect grade [11, 17]: 5 (Herbicidal rate of 90% or more (almost completely withered)) | F: southern crabgrass, herbicidal effect grade [12]: 2 (Herbicidal rate of 20% or more and less than 40%) | herbicidal effect on rice flat sedge (E) [13]: 5 (Herbicidal rate of 90% or more (almost completely withered)) | N: redroot pigweed, herbicidal effect grade [14]: 4 (Herbicidal rate of 70% or more and less than 90%) | Herbicidal effect, C: oval-leafed pondweed [15]: 5 (Herbicidal rate of 90% or more (almost completely withered)) | O: lambsquarters, herbicidal effect grade [16, 17]: 5 (Herbicidal rate of 90% or more (almost completely withered))

CCCOc1ccc(-c2sc3c(F)cccc3c2-c2c(OC(=O)CCC)c(C)nn(C)c2=O)cc1 [4-010]
Herbicidal effect by soil treatment, L: windgrass [1]: 0 (Herbicidal rate of 5% or less (almost no effect)) | Herbicidal effect by soil treatment, O: lambsquarters [2]: 3 (Herbicidal rate of 40% or more and less than 70%) | herbicidal effect on Chinese sprangletop (D) [3]: 4 (Herbicidal rate of 70% or more and less than 90%) | herbicidal effect on R: persian speedwell (evaluation grade 0-5) [4, 18]: 5 (Herbicidal rate of 90% or more (almost completely withered)) | herbicidal effect on P: chickweed (evaluation grade 0-5) [5, 18]: 5 (Herbicidal rate of 90% or more (almost completely withered)) | Herbicidal effect by soil treatment, M: velvetleaf [6]: 0 (Herbicidal rate of 5% or less (almost no effect)) | herbicidal effect on L: windgrass (evaluation grade 0-5) [7, 18]: 0 (Herbicidal rate of 5% or less (almost no effect)) | herbicidal effect on H: barnyard grass (evaluation grade 0-5) [8, 18]: 5 (Herbicidal rate of 90% or more (almost completely withered)) | herbicidal effect on G: green foxtail (evaluation grade 0-5) [9, 18]: 3 (Herbicidal rate of 40% or more and less than 70%) | herbicidal effect rating, C: oval-leafed pondweed [10]: 3 (Herbicidal rate of 40% or more and less than 70%) | herbicidal effect on F: southern crabgrass (evaluation grade 0-5) [11, 18]: 0 (Herbicidal rate of 5% or less (almost no effect)) | Herbicidal effect by soil treatment, F: southern crabgrass [12]: 0 (Herbicidal rate of 5% or less (almost no effect)) | herbicidal effect on rice flat sedge (E) [13]: 5 (Herbicidal rate of 90% or more (almost completely withered)) | Herbicidal effect by soil treatment, N: redroot pigweed [14]: 4 (Herbicidal rate of 70% or more and less than 90%) | Herbicidal effect, C: oval-leafed pondweed [15]: 3 (Herbicidal rate of 40% or more and less than 70%) | herbicidal effect on O: lambsquarters (evaluation grade 0-5) [16, 18]: 5 (Herbicidal rate of 90% or more (almost completely withered))
